Measured values taken from patent US11180494B2, “Substituted amino acids as integrin inhibitors” (Pliant Therapeutics, Inc., priority 2018, dated 2021).

Target: human integrin αvβ6 (Homo sapiens (Human), UniProt P06756+P18564)
Test: Proximity-based integrin receptor binding assay (ALPHASCREEN) for inhibitor potency
Conditions: inhibition of binding of TGF-b1 LAP to human integrin αvβ6; values given in ranges
Method: To gauge the potency of inhibitors of binding to human integrin αvβ6, inhibitor compounds and integrin were incubated together with TGF-b1 LAP and biotinylated anti-LAP antibody plus acceptor and donor beads, following the manufacture's recommendations. The donor beads were coated with streptavidin. […] All incubations occurred at room temperatures in 50 mM Tris-HCl, pH 7.5, 0.1% BSA supplemented with 1 mM each CaCl2 and MgCl2.
The order of reagent addition was as follows:
1. Alpha-v-beta-6 integrin, test inhibitor compound, LAP, biotinylated anti-LAP antibody and acceptor beads were all added together.
2. After 2 hours, donor beads were added. After another 30 minute incubation, samples were then read.
Integrin binding was evaluated by exciting donor beads at 680 nm, and measuring the fluorescent signal produced, between 520-620 nm, using a Biotek Instruments (Winooski, Vt., USA) SynergyNeo2 multimode plate reader. […] Data analysis for IC50 determinations was carried out by nonlinear four parameter logistic regression analysis using Dotmatics ELN Software (Core Informatics Inc., Branford, Conn.).

human integrin αvβ6, sequence (P06756 31-992): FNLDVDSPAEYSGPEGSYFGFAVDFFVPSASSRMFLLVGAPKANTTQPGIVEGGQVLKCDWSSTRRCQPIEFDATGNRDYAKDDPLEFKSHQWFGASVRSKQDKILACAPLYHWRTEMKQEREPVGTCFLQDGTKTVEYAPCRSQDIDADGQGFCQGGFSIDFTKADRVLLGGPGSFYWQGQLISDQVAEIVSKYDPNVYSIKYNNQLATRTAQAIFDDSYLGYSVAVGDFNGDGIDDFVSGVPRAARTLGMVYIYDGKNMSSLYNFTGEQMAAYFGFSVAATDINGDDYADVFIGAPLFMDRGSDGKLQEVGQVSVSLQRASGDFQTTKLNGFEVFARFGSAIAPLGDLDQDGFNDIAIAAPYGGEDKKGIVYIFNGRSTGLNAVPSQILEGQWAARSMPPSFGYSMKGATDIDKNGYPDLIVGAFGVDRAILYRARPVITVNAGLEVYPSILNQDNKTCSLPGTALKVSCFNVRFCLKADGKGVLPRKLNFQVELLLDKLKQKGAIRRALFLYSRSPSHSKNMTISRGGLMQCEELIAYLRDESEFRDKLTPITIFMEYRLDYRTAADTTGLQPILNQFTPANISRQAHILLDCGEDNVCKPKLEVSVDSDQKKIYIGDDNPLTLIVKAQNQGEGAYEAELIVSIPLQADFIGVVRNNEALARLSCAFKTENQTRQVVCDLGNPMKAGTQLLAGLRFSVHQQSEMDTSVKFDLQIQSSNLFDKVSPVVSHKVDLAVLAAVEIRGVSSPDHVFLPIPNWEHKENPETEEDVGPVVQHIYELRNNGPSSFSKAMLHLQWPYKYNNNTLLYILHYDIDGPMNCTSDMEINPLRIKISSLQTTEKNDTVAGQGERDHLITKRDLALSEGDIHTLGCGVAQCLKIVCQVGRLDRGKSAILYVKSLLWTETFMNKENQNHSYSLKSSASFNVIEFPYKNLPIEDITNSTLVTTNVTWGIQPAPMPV
human integrin αvβ6, sequence (P18564 22-707): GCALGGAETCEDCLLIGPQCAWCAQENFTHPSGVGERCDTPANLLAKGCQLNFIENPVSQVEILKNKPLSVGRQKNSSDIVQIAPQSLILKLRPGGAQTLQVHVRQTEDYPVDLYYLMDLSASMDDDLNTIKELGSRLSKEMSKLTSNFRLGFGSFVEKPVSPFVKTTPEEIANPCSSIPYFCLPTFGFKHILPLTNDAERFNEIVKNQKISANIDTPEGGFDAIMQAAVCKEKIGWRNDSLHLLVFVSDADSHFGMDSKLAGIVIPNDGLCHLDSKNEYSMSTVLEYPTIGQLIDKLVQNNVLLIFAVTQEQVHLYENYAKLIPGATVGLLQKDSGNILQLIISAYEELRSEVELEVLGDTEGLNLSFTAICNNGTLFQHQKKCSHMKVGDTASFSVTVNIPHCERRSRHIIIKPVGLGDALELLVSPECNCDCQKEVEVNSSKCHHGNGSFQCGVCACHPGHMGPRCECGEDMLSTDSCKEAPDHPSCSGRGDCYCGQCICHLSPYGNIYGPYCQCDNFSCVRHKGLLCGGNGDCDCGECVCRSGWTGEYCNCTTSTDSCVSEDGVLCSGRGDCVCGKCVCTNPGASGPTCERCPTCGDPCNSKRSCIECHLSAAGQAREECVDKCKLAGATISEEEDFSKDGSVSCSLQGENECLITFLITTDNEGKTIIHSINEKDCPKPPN

IC50 [nM] | Compound
< 50 | O=C(NC(CCOCCCCc1ccc2c(n1)NCCC2)C(=O)O)c1cccc(F)c1Cl (racemic) [Compound 1, N-(2-chloro-3-fluorobenzoyl)-O-(4-(5,6,7,8-tetrahydro-1,8-naphthyridin-2-yl)butyl)homoserine]
> 1000 | O=C(N[C@@H](CCO[C@H]1C[C@H](CCc2ccc3c(n2)NCCC3)C1)C(=O)O)C1CCc2ccccc21 (single isomer, unassigned) [95*,†]
250 to 1000 | O=C(N[C@@H](CCO[C@H]1C[C@H](CCc2ccc3c(n2)NCCC3)C1)C(=O)O)C1CCc2ccccc21 (single isomer, unassigned) [96*,††]
50 to 250 | O=C(N[C@@H](CCO[C@H]1C[C@H](CCc2ccc3c(n2)NCCC3)C1)C(=O)O)C1CCc2ccccc21 (single isomer, unassigned) [110**,†]
< 50 | O=C(N[C@@H](CCO[C@H]1C[C@H](CCc2ccc3c(n2)NCCC3)C1)C(=O)O)C1CCc2ccccc21 (single isomer, unassigned) [111**,††]
< 50 | CCC(CC(F)F)C(=O)NC(CCO[C@H]1C[C@H](CCc2ccc3c(n2)NCCC3)C1)C(=O)O (single isomer, unassigned) [Example 162b, N-(-2-ethyl-4,4-difluorobutanoyl)-O-(trans-3-(2-(5,6,7,8-tetrahydro-1,8-naphthyridin-2-yl)ethyl)cyclobutyl)homoserine]
> 1000 | Cn1ncc2c(C(=O)NC(CCOCCCCc3ccc4c(n3)NCCC4)C(=O)O)cccc21 (centres unmarked) [Compound 4, N-(1-methyl-1H-indazole-4-carbonyl)-O-(4-(5,6,7,8-tetrahydro-1,8-naphthyridin-2-yl)butyl)homoserine]
50 to 250 | CCC(CC)C(=O)NC(CCOCCCCc1ccc2c(n1)NCCC2)C(=O)O (centres unmarked) [Compound 5, N-(2-ethylbutanoyl)-O-(4-(5,6,7,8-tetrahydro-1,8-naphthyridin-2-yl)butyl)homoserine]
250 to 1000 | O=C(NC(CCOCCCCc1ccc2c(n1)NCCC2)C(=O)O)c1ccccc1 (centres unmarked) [Compound 6, N-benzoyl-O-(4-(5,6,7,8-tetrahydro-1,8-naphthyridin-2-yl)butyl)homoserine]
50 to 250 | O=C(NC(CCOCCCCc1ccc2c(n1)NCCC2)C(=O)O)C1CCC(F)(F)CC1 (centres unmarked) [Compound 7, N-(4,4-difluorocyclohexane-1-carbonyl)-O-(4-(5,6,7,8-tetrahydro-1,8-naphthyridin-2-yl)butyl)homoserine]
250 to 1000 | CCCCC(=O)NC(CCOCCCCc1ccc2c(n1)NCCC2)C(=O)O (centres unmarked) [Compound 8, N-pentanoyl-O-(4-(5,6,7,8-tetrahydro-1,8-naphthyridin-2-yl)butyl)homoserine]
50 to 250 | O=C(NC(CCOCCCCc1ccc2c(n1)NCCC2)C(=O)O)c1cc(F)cc(C(F)(F)F)c1 (centres unmarked) [Compound 9, N-(3-fluoro-5-(trifluoromethyl)benzoyl)-O-(4-(5,6,7,8-tetrahydro-1,8-naphthyridin-2-yl)butyl)homoserine]
50 to 250 | O=C(NC(CCOC1CC(CCc2ccc3c(n2)NCCC3)C1)C(=O)O)c1cc(F)cc(C(F)(F)F)c1 (centres unmarked) [Compound 10, N-(3-fluoro-5-(trifluoromethyl)benzoyl)-O-(3-(2-(5,6,7,8-tetrahydro-1,8-naphthyridin-2-yl)ethyl)cyclobutyl)homoserine]
50 to 250 | CCCCC(=O)NC(CCOC1CC(CCc2ccc3c(n2)NCCC3)C1)C(=O)O (centres unmarked) [Compound 11, N-pentanoyl-O-(3-(2-(5,6,7,8-tetrahydro-1,8-naphthyridin-2-yl)ethyl)cyclobutyl)homoserine]
< 50 | O=C(N[C@@H](CCO[C@H]1C[C@@H](CCc2ccc3c(n2)NCCC3)C1)C(=O)O)c1cccc(F)c1Cl [Compound 14, N-(2-chloro-3-fluorobenzoyl)-O-(cis-3-(2-(5,6,7,8-tetrahydro-1,8-naphthyridin-2-yl)ethyl)cyclobutyl)homoserine]
< 50 | O=C(N[C@@H](CCO[C@H]1C[C@@H](CCc2ccc3c(n2)NCCC3)C1)C(=O)O)c1ccc(F)cc1 [Compound 15, N-(4-fluorobenzoyl)-O-(cis-3-(2-(5,6,7,8-tetrahydro-1,8-naphthyridin-2-yl)ethyl)cyclobutyl)homoserine]
< 50 | O=C(N[C@@H](CCO[C@H]1C[C@H](CCc2ccc3c(n2)NCCC3)C1)C(=O)O)c1ccc(F)cc1 [Compound 16, N-(4-fluorobenzoyl)-O-(trans-3-(2-(5,6,7,8-tetrahydro-1,8-naphthyridin-2-yl)ethyl)cyclobutyl)homoserine]
< 50 | O=C(N[C@@H](CCO[C@H]1C[C@H](CCc2ccc3c(n2)NCCC3)C1)C(=O)O)c1ccc(Cl)cc1 [Compound 17, N-(4-chlorobenzoyl)-O-(trans-3-(2-(5,6,7,8-tetrahydro-1,8-naphthyridin-2-yl)ethyl)cyclobutyl)homoserine]
< 50 | O=C(N[C@@H](CCO[C@H]1C[C@H](CCc2ccc3c(n2)NCCC3)C1)C(=O)O)c1cccc(F)c1 [Compound 19, N-(3-fluorobenzoyl)-O-(trans-3-(2-(5,6,7,8-tetrahydro-1,8-naphthyridin-2-yl)ethyl)cyclobutyl)homoserine]
< 50 | O=C(N[C@@H](CCO[C@H]1C[C@H](CCc2ccc3c(n2)NCCC3)C1)C(=O)O)c1cccc(Cl)c1 [Compound 20, N-(3-chlorobenzoyl)-O-(trans-3-(2-(5,6,7,8-tetrahydro-1,8-naphthyridin-2-yl)ethyl)cyclobutyl)homoserine]
< 50 | O=C(N[C@@H](CCO[C@H]1C[C@H](CCc2ccc3c(n2)NCCC3)C1)C(=O)O)c1ccccc1Cl [Compound 21, N-(2-chlorobenzoyl)-O-(trans-3-(2-(5,6,7,8-tetrahydro-1,8-naphthyridin-2-yl)ethyl)cyclobutyl)homoserine]
< 50 | O=C(N[C@@H](CCO[C@H]1C[C@H](CCc2ccc3c(n2)NCCC3)C1)C(=O)O)c1ccccc1F [Compound 22, N-(2-fluorobenzoyl)-O-(trans-3-(2-(5,6,7,8-tetrahydro-1,8-naphthyridin-2-yl)ethyl)cyclobutyl)homoserine]
< 50 | O=C(N[C@@H](CCO[C@H]1C[C@H](CCc2ccc3c(n2)NCCC3)C1)C(=O)O)c1cccc(F)c1F [Compound 23, N-(2,3-difluorobenzoyl)-O-(trans-3-(2-(5,6,7,8-tetrahydro-1,8-naphthyridin-2-yl)ethyl)cyclobutyl)homoserine]
< 50 | O=C(N[C@@H](CCO[C@H]1C[C@H](CCc2ccc3c(n2)NCCC3)C1)C(=O)O)c1ccc(F)cc1F [Compound 24, N-(2,4-difluorobenzoyl)-O-(trans-3-(2-(5,6,7,8-tetrahydro-1,8-naphthyridin-2-yl)ethyl)cyclobutyl)homoserine]
< 50 | O=C(N[C@@H](CCO[C@H]1C[C@H](CCc2ccc3c(n2)NCCC3)C1)C(=O)O)c1ccc(F)cc1Cl [Compound 25, N-(2-chloro-4-fluorobenzoyl)-O-(trans-3-(2-(5,6,7,8-tetrahydro-1,8-naphthyridin-2-yl)ethyl)cyclobutyl)homoserine]
< 50 | O=C(N[C@@H](CCO[C@H]1C[C@H](CCc2ccc3c(n2)NCCC3)C1)C(=O)O)c1cc(F)cc(Cl)c1 [Compound 26, N-(3-chloro-5-fluorobenzoyl)-O-(trans-3-(2-(5,6,7,8-tetrahydro-1,8-naphthyridin-2-yl)ethyl)cyclobutyl)homoserine]

Compound | IC50 [nM]
O=C(N[C@@H](CCO[C@H]1C[C@H](CCc2ccc3c(n2)NCCC3)C1)C(=O)O)c1ccnc2cc[nH]c12 (relative stereo) [Compound 170, N-(1H-pyrrolo[3,2-b]pyridine-7-carbonyl)-O-(trans-3-(2-(5,6,7,8-tetrahydro-1,8-naphthyridin-2-yl)ethyl)cyclobutyl)homoserine] | < 50
O=C(N[C@@H](CCO[C@H]1C[C@H](CCc2ccc3c(n2)NCCC3)C1)C(=O)O)C1CCCc2cn[nH]c21 (relative stereo) [Compound 177, O-(trans-3-(2-(5,6,7,8-tetrahydro-1,8-naphthyridin-2-yl)ethyl)cyclobutyl)-N-(4,5,6,7-tetrahydro-1H-indazole-7-carbonyl)homoserine] | 50 to 250
CC(CO[C@H]1C[C@H](CCc2ccc3c(n2)NCCC3)C1)C(NC(=O)OC(C)(C)C)C(=O)O (single isomer, unassigned) [Example 145A, 2-((tert-butoxycarbonyl)amino)-3-methyl-4-(trans-3-(2-(5,6,7,8-tetrahydro-1,8-naphthyridin-2-yl)ethyl)cyclobutoxy)butanoic Acid] | 250 to 1000
CC(CO[C@H]1C[C@H](CCc2ccc3c(n2)NCCC3)C1)C(NC(=O)OC(C)(C)C)C(=O)O (single isomer, unassigned) [Example 145B, 2-((tert-butoxycarbonyl)amino)-3-methyl-4-(trans-3-(2-(5,6,7,8-tetrahydro-1,8-naphthyridin-2-yl)ethyl)cyclobutoxy)butanoic Acid] | 50 to 250
CC(C)(C)OC(=O)NC(CCOCCCCc1ccc2c(n1)NCCC2)C(=O)O (centres unmarked) [Compound 13, N-(tert-butoxycarbonyl)-O-(4-(5,6,7,8-tetrahydro-1,8-naphthyridin-2-yl)butyl)homoserine] | 250 to 1000
CC(C)(C)OC(=O)N[C@@H](CCO[C@H]1C[C@@H](CCc2ccc3c(n2)NCCC3)C1)C(=O)O [Compound 18, N-(tert-butoxycarbonyl)-O-(cis-3-(2-(5,6,7,8-tetrahydro-1,8-naphthyridin-2-yl)ethyl)cyclobutyl)homoserine] | 50 to 250
